In PubChem BioAssay (NCI):
“And” between values parts separate entries of the source, which are not always exact repeats. Equal values may be shown once.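 Each compound was tested at five concentrations against cells in 96-well plates for 48 hours. GI50: concentration for 50% inhibition of growth. The concentration for full growth arrest is given as TGI.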

Tests used:
Experiment in all cases: inhibition of tumour cell growth, NCI panel, 48 h
SK-MEL-28 melanoma = system: SK-MEL-28 melanoma
T-47D breast = system: T-47D breast
HOP-62 NSCLC = system: HOP-62 NSCLC
ACHN renal = system: ACHN renal
COLO 205 colon = system: COLO 205 colon
TK-10 renal = system: TK-10 renal
SF-539 CNS = system: SF-539 CNS
SNB-75 CNS = system: SNB-75 CNS
SR leukemia = system: SR leukemia
A549 NSCLC = system: A549 NSCLC

| SMILES | GI50 (SK-MEL-28 melanoma) [nM] | TGI (SK-MEL-28 melanoma) [µM] | GI50 (T-47D breast) [nM] | TGI (T-47D breast) [µM] | GI50 (HOP-62 NSCLC) [nM] | TGI (HOP-62 NSCLC) | GI50 (ACHN renal) [nM] | TGI (ACHN renal) | GI50 (COLO 205 colon) [nM] | TGI (COLO 205 colon) | GI50 (TK-10 renal) [nM] | TGI (TK-10 renal) | GI50 (SF-539 CNS) [nM] | TGI (SF-539 CNS) | GI50 (SNB-75 CNS) [nM] | TGI (SNB-75 CNS) | GI50 (SR leukemia) [nM] | TGI (SR leukemia) | GI50 (A549 NSCLC) [nM] | TGI (A549 NSCLC) |
| --- | --- | --- | --- | --- | --- | --- | --- | --- | --- | --- | --- | --- | --- | --- | --- | --- | --- | --- | --- | --- |
| CC1OC(OC2C(O)CC(OC3C(O)CC(OC4CCC5(C)C(CCC6C5CC(O)C5(C)C(C7=CC(=O)OC7)CCC65O)C4)OC3C)OC2C)CC(O)C1O (centres undefined) | 152 | 0.302 | 53.8 | 0.292 | 36 | 0.125 µM | 35.8 | 0.126 µM | 131 | 0.272 µM | 29.5 | 0.087 µM | 42.7 | 0.15 µM | 76.5 | 0.241 µM | 24.4 | 0.0897 µM | 18.7 | 0.0356 µM |
| COc1ccc(/C=C(\C#N)n2nnc3c(F)cccc32)cc1 | 1280 | > 100 | 1050 | > 100 | 621 | > 83.1 µM | 689 | > 51.6 µM | 380 | > 100 µM | 2730 | 29 µM | 322 | 1.48 µM | 170 | 0.517 µM | 161 | > 100 µM | 780 | > 100 µM |
| COC(=O)c1cncc(/C=C/c2c(C)cc(O)cc2C)c1 | > 12700 | 24.8 | 11000 | > 22.2 | 9820 | > 20.5 µM | > 21500 | > 25 µM | > 22400 | > 25 µM | > 25000 | > 25 µM | 11000 | > 25 µM | > 9930 | > 18.8 µM | 2670 | > 25 µM | > 17500 | > 25 µM |
| O=C(/C=C/c1cccc(O)c1)c1cccc(-n2cc(-c3ccccc3)[nH]c2=O)c1 | 8070 | 20.6 | 3140 | 12.1 | 4270 | > 25.9 µM | 2720 | 7.4 µM | 1960 | 3.85 µM | 2430 | 6.89 µM | 1970 | 3.84 µM | 5700 | 18.2 µM | 1510 | > 20.1 µM | 6390 | 21.8 µM |
| COC(=O)CCCCC(=O)c1c(C)[nH]c(/C=C2\N=C(c3ccc[nH]3)C=C2OC)c1C | 1170 | 2.47 | 723 | 2.36 | 475 | 1.87 µM | 1000 | 2.32 µM | 1640 | 3.29 µM | 2060 | 6.38 µM | 1150 | 2.47 µM | 851 | 2.24 µM | 29 | 0.313 µM | 1250 | 3.28 µM |
| CSc1nc2sc3c(c2c(=O)n1-c1ccc(C(C)C)cc1)CCC(=O)C3 | 2450 | 4.62 | 1810 | 3.74 | 2050 | 4.05 µM | 2250 | 4.48 µM | 1890 | 3.63 µM | 2580 | 6.53 µM | 2050 | 4.1 µM | 2220 | 5.21 µM | 2140 | 6.02 µM | 3770 | 20.7 µM |
| c1ccc2c(c1)Nc1ccncc1S2 | 31500 | > 100 | 22400 | 96.3 | 19500 | > 100 µM | 17900 | > 100 µM | 11500 | 37.1 µM | 22700 | 83.4 µM | 19700 | 67.1 µM | 18100 | 56.6 µM | 13400 | 50.3 µM | 26300 | > 100 µM |
| Oc1ccc(C(c2ccc(O)cc2)c2ccc(Br)cn2)cc1 | 21300 | 60 | 177 | 0.531 | 6120 | > 62 µM | 450 | 14.5 µM | 308 | 3.44 µM | 258 | 1.13 µM | 5280 | 27.6 µM | 192 | 0.635 µM | 26000 | > 86.3 µM | 1950 | 60 µM |
| Cc1cc[n+]2c(c1)-c1cc(C)cc[n+]1CC2 | – | > 100 | – | > 100 | – | > 100 µM | – | > 100 µM | – | > 86.1 µM | – | > 100 µM | – | > 100 µM | – | > 100 µM | – | > 100 µM | – | > 100 µM |
| Cn1cc(C2=C(c3cccc(OC[C@@H](O)CO)c3)C(=O)NC2=O)c2ccccc21 | > 25000 | > 25 | > 22900 | > 25 | > 25000 | > 25 µM | 16500 | > 25 µM | > 18300 | > 25 µM | > 25000 | > 25 µM | > 19400 | > 25 µM | 94.4 | > 25 µM | > 11200 | > 25 µM | > 25000 | > 25 µM |
| Cc1cc(C#Cc2ccc(C(C)(C)C)cc2)ccc1-n1c(/C=C/c2ccc(O)cc2O)nc2ccccc2c1=O | 2420 | 7.27 | 3850 | 24.4 | 5880 | 20.5 µM | 3260 | 13.4 µM | 3020 | 9.59 µM | 3820 | 12.8 µM | 4370 | 16.5 µM | 1870 | 16 µM | 2450 | 6.49 µM | 2830 | 11.1 µM |
| Cc1cc(N=Nc2ccccc2C)ccc1N | – | 44.3 | 13300 | 78.5 | 15200 | 19.2 µM and 36.4 µM | 14700 | 28.7 µM and 45.8 µM | – | 33.6 µM and 32.4 µM | 15500 | 49.3 µM and 72 µM | – | 12.1 µM and 11.6 µM | 4100 | 28.1 µM and 31.9 µM | 8490 | 52.1 µM and 61.6 µM | 3420 | 17.1 µM and 20.3 µM |
| C[C@]12CC[C@@H]3c4cc(OC(F)F)c(OS(N)(=O)=O)cc4CC[C@H]3[C@@H]1CC[C@@H]2O | 1430 | 24.6 | 445 | 43.2 | 592 | 27.3 µM | 650 | 49.1 µM | 653 | 13.9 µM | 17000 | > 77.2 µM | 333 | 4.58 µM | 193 | 0.665 µM | 303 | > 100 µM | 1750 | > 88.2 µM |
| COc1ccc(-c2nc(/C=C3\SC(=NCc4ccccc4)NC3=O)c3ccccn23)cc1 | 2000 | 4.4 | 1260 | 3.11 | 1540 | 3 µM | 1340 | 1.94 µM | 2750 | 7.66 µM | 2310 | 5.24 µM | 1410 | 1.99 µM | 1510 | 3.2 µM | 2500 | > 100 µM | 1580 | 4.25 µM |
| c1ccc2cc(-c3n(Cc4ccc5ccccc5n4)c4ccccc4[n+]3Cc3ccc4ccccc4n3)ccc2c1 | 423 | 1.65 | 222 | 1.28 | 363 | 1.49 µM | 717 | 1.95 µM | 171 | 0.346 µM | 413 | 1.83 µM | 390 | 1.43 µM | 190 | 0.746 µM | 362 | 1.42 µM | 349 | 1.51 µM |
| N#CCN1CCn2c1nsc2=S | > 100000 | > 100 | > 100000 | > 100 | > 100000 | > 100 µM | > 100000 | > 100 µM | 85500 | > 100 µM | > 100000 | > 100 µM | > 100000 | > 100 µM | > 100000 | > 100 µM | 1090 | 24.1 µM | > 100000 | > 100 µM |
| OCCNC1c2cc(Cl)ccc2-c2c(Cl)cc(Cl)cc21 (centres undefined) | – | > 100 | – | > 100 | – | > 100 µM | – | 67 µM | – | > 100 µM | – | > 100 µM | – | > 100 µM | – | > 100 µM | – | 44.9 µM | – | > 100 µM |
| CCC1(O)C(=O)OCc2c1cc1n(c2=O)Cc2cc3c(NC(=O)CN)cccc3nc2-1 (centres undefined) | – | > 100 | 329 | – | 84.7 | 0.622 µM | 187 | 2.71 µM | 5000 | 46.6 µM | 38700 | > 97.6 µM | 110 | 0.821 µM | 346 | 5.14 µM | 26.2 | 0.183 µM | 1200 | > 67.7 µM |
| COC1C(N)C(OC2C(Oc3cccc4c(O)c5c(=O)oc6ccc(C)c7c(=O)oc(c34)c5c67)OC(C)C(O)C2(C)O)OC(C)C1O (centres undefined) | – | 0.34 | – | 1.43 | – | 0.258 µM | – | 1.5 µM | – | 0.383 µM | – | 1.27 µM | – | 0.208 µM | – | 0.356 µM | – | 8.12 µM | – | 1.49 µM |
| C/C(=C\c1cnc(C)s1)[C@@H]1C[C@@H]2O[C@@H]2CCC[C@H](C)[C@H](O)[C@@H](C)C(=O)C(C)(C)[C@@H](O)CC(=O)O1 | > 100000 | > 100 | 17.1 | > 100 | < 12.7 | > 100 µM | < 10 | > 100 µM | < 10 | 0.0304 µM | 936 | > 100 µM | < 10 | > 100 µM | < 10 | – | < 10 | > 100 µM | < 10 | > 100 µM |
| Nc1nc(Nc2ccccc2SSc2ccccc2Nc2nc(N)nc(C(Cl)(Cl)Cl)n2)nc(C(Cl)(Cl)Cl)n1 | 10900 | 23.6 | 2790 | 39.2 | 2070 | 6.33 µM | 1700 | 3.2 µM | 17600 | 34.9 µM | 4850 | 17.2 µM | 11200 | 24.7 µM | 2940 | 22.3 µM | 1630 | 3.76 µM | 2950 | 10.8 µM |
| COc1cc2nc(-c3cc(F)ccc3O)nc(N[C@@H]3CNC[C@H]3C(C)(C)O)c2cc1OC | 1860 | 3.41 | 2060 | 3.98 | 1260 | 2.76 µM | 1750 | 3.38 µM | 1630 | 3.16 µM | 1940 | 5.68 µM | 1550 | 3 µM | 420 | 2.71 µM | 1270 | 3.62 µM | 1740 | 3.51 µM |
| Oc1cccc2ccc(N/N=C/c3cc(CN4CCOCC4)c(O)c4ncccc34)nc12 | 63.4 | 6.19 | 27.4 | 0.682 | 28.1 | 1.44 µM | < 11.9 | 1.47 µM | 117 | 1.6 µM | 49.7 | 13.5 µM | 35.2 | 1.64 µM | 25.3 | 2 µM | 33.2 | 4.38 µM | 24.5 | 1.23 µM |
| Cc1cccc2c3c(sc12)C(c1ccc(Cl)cc1)C(C#N)=C(N)O3 (centres undefined) | 3690 | 20.7 | 411 | 25.3 | 515 | 13.8 µM | 834 | 14.1 µM | 435 | 4.52 µM | 5920 | 21.7 µM | 299 | 1.14 µM | 214 | 0.71 µM | 452 | > 33.9 µM | 486 | 9.66 µM |
| O=C(CCCCCCN1CC(=O)N2[C@@H](c3ccc(Cl)c(Cl)c3)c3[nH]c4ccccc4c3C[C@H]2C1=O)NO | 3540 | 9.52 | 1580 | 25.2 | 3880 | 9.35 µM | 5340 | 12.9 µM | 3500 | 10.1 µM | 3510 | 10.2 µM | 3760 | 9.27 µM | 832 | 7 µM | 689 | 3.1 µM | 4990 | 13.6 µM |
